Experimental data as given in US10278979B2, “Therapeutic agent for intractable leukemia” (RIKEN, priority 2015, dated 2019).
Entries after “also recorded” stand apart in the source; their conditions may differ.

Key:
[1] = system: MLL cells (MLL-AF9 ALL cell) in the bone marrow; assay: Leukemia humanized mouse (MLL-AF9), human leukemia cells in bone marrow (flow cytometry, hCD45/DAB staining); type: in vivo; details: MLL-AF9 case; after treatment; FIG. 4
Text: (§1) NOD. Cg-Prkdc^scid Il2rg^tmlWjl/Sz (NOD/SCID/IL2rg^null, NSG) mice were developed by subjecting a complete null mutation in the Il2rg gene locus to back cross with NOD. Cg-Prkdc^scid (NOD/SCID) lineage, in the Jackson Laboratory (Bar Harbor, Me. state, USA) (Shultz, L. D. et al., Multiple defects in innate and adaptive immunologic function in NOD/LtSz-scid mouse. J. Immunol. 154, 180-191 (1995)). The mice were raised by feeding irradiated food and acidified water in the animal facilities of RIKEN and the Jackson Laboratory in accordance with the guideline established by the Institutional Animal Committees and maintained under bacterial flora specified.
(§2) NSG mice in the neonatal period were exposed to radiation (1.5 G) and then patient-derived MLL cells (MLL-AF9) were transplanted to the mice. After the presence of the human leukemia cells in the peripheral blood was confirmed by flow cytometry based on the presence of hCD45+CD19+, treatment of the mice (leukemia humanized mice) with dexamethasone (70 mg/kg IP daily) and/or RK-20449 (30 mg/kg IP BID, twice a day) or both was started.
After the treatment, the mice were euthanized and the appearance frequency of human leukemia cells in the bone marrow was determined by flow cytometry. At the same time, one of the femur bones was fixed in PFA and […]-thin sections were prepared. […]

[2] = system: MLL cells (MLL-AF9 ALL cells); assay: Secondary transplantation of MLL cells remaining after treatment into neonatal NSG mice; type: in vivo, mouse; details: cells taken from treated primary recipient, FIG. 7
Text: Finally, human leukemia cells remaining in the bone marrow were purified by sorting and transplanted to neonatal NSG mice (secondary transplantation).
MLL cells (MLL-AF9 ALL cells) were transplanted (primary transplant) to an immunodeficient mouse and a treatment with a combination of dexamethasone and RK-20449 was applied. Thereafter, MLL cells were taken from the mouse and transplanted to another immunodeficient mouse (secondary transplantation). The results are shown in the graphs as FIG. 7. The cases treated with dexamethasone alone and RK-20449 alone were used as controls (for comparison).

[3] = system: patient-derived MLL cells (MLL-AF9); assay: Leukemia humanized mouse (MLL-AF9), human leukemia cells in peripheral blood; type: in vivo; details: MLL-AF9 cases in NSG mice; dexamethasone 70 mg/kg IP daily and/or RK-20449 30 mg/kg IP BID; FIG. 1-3
Text: as §1, §2

CN1CCN([C@H]2CC[C@H](n3cc(-c4ccc(Oc5ccccc5)cc4)c4c(N)ncnc43)CC2)CC1 [RK-20449, 7-[trans-4-(4-methyl-1-piperazinyl)cyclohexyl]-5-(4-phenoxyphenyl)-7H-pyrrolo[2,3-d]pyrimidin-4-amine]
medicinal effect in the bone marrow (appearance frequency of human leukemia cells, flow cytometry) [1]: A sufficient therapeutic effect was not obtained | MLL cells in secondary transplantation recipient (proliferation after transplantation) [2]: MLL cells were present in significantly high percentages | chimerism (percentage) of human leukemia cells in the mouse peripheral blood [3]: not easy to eradicate MLL by single use; also recorded: impossible to expect complete cure of MLL
